From patent EP0361645B1, “Organic hydrazine derivatives for pharmaceutical use” (ROHM AND HAAS COMPANY, priority 1988, dated 1990)

Assays:
Kr cells = assay: Resistant Kr cell populations: response and ecdysteroid receptor activity; format: cell-based, Drosophila; settings: for response of surviving cells (process elaboration, proliferation): four weeks in 1 X 10^-6 M 20 hydroxyecdysone or 1 X 10^-4 M Example No. 3; for ^3H-ponasterone A bound by resistant cell populations: populations reared in 1 X 10^-6 M 20-hydroxyecdysone or 1 X 10^-4 M Example No. 3, solvent controls 10.1
Experimental: Resistant Kr cell populations were reared by incubating cells at an initial density of 8 X 10^6 cells/ml with hormone or Example No. 3. The cells killed by treatment provide a feeder layer for the resistant populations. […] Ponasterone binding was assayed as described below and protein concentrations were determined using the Biorad method. This cross-resistance is compelling evidence that 20-hydroxyecdysone and Example No. 3 act through the ecdysone receptor.

[1] = test system: dipteran larvae (both houseflies and mosquitoes) and certain coleopteran larvae; assay: Control of larvae and ovariole development in other insect orders; format: in vivo
From the text: We have observed the induction of premature head capsule apolysis by Example No. 3 in all larval stages of M. sexta. This phenomenon has also been observed in larval Lepidoptera of the families Noctuidae, Pyralidae and Pieridae. […] This latter activity is consistent with its putative ecdysonergic mechanism of action.

[2] = test system: ligated M. sexta abdomens (L5D3); assay: Onset of pupal development in ligated L5D3 M. sexta abdomens (injection); format: in vivo; settings: injected into L5D3 abdomens, events related to pupal formation
Experimental: L4D1 means fourth instar, first day after molting. L4 animals 36 hours after ecdysis were ligated, decapitated and next day injected with varying doses of compound in 1 - 2 ul DMSO. They were scored as follows: 0 = normal L4 abdomens with no L5 crochets or spiracle apolysis; 1 = exposed dorsal vessel (response to moderate levels of molting hormone in the presence of low JH levels); 2 = L5 crochets formed but no spiracle apolysis; 3 = L5 crochets formed and mild spiracle apolysis; 4 = strong molting response, both L5 crochets and spiracle cuticle synthesized. These methods are an adaptation of the method of J. W. Truman, L. M. Riddiford, L. Safranek, 39 Dev. Biol 247 (1974). Injection and scoring of L5D3 abdomens (weighing 6.5 - 7.5 g) are also adaptations of previous methods in H. F. Nijhout, 22 J. Insect Physiol. 453 (1976). […] Animals were held over moistened filter paper at 25 ° C and were scored after three days. […] For both L4 and L5 abdomens, 50% effective doses were determined by plotting the mean score for all individuals vs. dose, then determining the dose which gives a score of 2.0 and 1.5 respectively. Intact L5D0 hornworms were either allowed to feed on treated commercial black cutworm diet or injected into a proleg and scored after 48 hours. The 50% effective dose was calculated by plotting percentage of the population bearing a prematurely apolysed head capsule vs. dose. […]

| SMILES | response of surviving cells (process elaboration, proliferation) (Kr cells) | ^3H-ponasterone A bound by resistant cell populations (Kr cells) | control of larvae ([1]; houseflies, mosquitoes, certain coleopteran larvae) | ovariole development ([1]; in all three orders) | times as potent as 20-hydroxyecdysone [2] |
| --- | --- | --- | --- | --- | --- |
| CC(C)(O)CC[C@@H](O)[C@](C)(O)[C@H]1CC[C@@]2(O)C3=CC(=O)[C@@H]4C[C@@H](O)[C@@H](O)C[C@]4(C)[C@H]3CC[C@]12C [20-hydroxyecdysone, reference compound] | do not respond to either compound | 1.5 femtomoles ^3H-ponasterone A per mg cytosolic protein | – | – | – |
| CC(C)(C)N(NC(=O)c1ccccc1)C(=O)c1ccccc1 [Example No. 3, N'-t-butyl-N,N'-dibenzoylhydrazine] | do not respond to either compound | 1.4 femtomoles ^3H-ponasterone A per mg cytosolic protein | controls | inhibit ovariole development | 30 times |
